In patent US5149778A, “Cyclic peptides for treating herpes infections” (Bio-Mega, Inc., priority 1989, dated 1992):
Where a SMILES comes first, the peptide text is derived from it. Bridges are numbered along the chain shown (N, C = ends). [ ]: non-standard residue; d: D form. NMeV = CN[C@H](C(=O)O)C(C)C

Target: T1, HSV-1 ribonucleotide reductase (Human herpesvirus 1, UniProt P08543)
T1 construct: obtained from quiescent BHK-21/C13 cells infected with strain F HSV-1 virus; endogenous in cells; host or cells: quiescent BHK-21/C13 cells infected with HSV-1 strain F (10 pfu/cell); partially purified viral enzyme
T1 sequence (P08543 whole entry): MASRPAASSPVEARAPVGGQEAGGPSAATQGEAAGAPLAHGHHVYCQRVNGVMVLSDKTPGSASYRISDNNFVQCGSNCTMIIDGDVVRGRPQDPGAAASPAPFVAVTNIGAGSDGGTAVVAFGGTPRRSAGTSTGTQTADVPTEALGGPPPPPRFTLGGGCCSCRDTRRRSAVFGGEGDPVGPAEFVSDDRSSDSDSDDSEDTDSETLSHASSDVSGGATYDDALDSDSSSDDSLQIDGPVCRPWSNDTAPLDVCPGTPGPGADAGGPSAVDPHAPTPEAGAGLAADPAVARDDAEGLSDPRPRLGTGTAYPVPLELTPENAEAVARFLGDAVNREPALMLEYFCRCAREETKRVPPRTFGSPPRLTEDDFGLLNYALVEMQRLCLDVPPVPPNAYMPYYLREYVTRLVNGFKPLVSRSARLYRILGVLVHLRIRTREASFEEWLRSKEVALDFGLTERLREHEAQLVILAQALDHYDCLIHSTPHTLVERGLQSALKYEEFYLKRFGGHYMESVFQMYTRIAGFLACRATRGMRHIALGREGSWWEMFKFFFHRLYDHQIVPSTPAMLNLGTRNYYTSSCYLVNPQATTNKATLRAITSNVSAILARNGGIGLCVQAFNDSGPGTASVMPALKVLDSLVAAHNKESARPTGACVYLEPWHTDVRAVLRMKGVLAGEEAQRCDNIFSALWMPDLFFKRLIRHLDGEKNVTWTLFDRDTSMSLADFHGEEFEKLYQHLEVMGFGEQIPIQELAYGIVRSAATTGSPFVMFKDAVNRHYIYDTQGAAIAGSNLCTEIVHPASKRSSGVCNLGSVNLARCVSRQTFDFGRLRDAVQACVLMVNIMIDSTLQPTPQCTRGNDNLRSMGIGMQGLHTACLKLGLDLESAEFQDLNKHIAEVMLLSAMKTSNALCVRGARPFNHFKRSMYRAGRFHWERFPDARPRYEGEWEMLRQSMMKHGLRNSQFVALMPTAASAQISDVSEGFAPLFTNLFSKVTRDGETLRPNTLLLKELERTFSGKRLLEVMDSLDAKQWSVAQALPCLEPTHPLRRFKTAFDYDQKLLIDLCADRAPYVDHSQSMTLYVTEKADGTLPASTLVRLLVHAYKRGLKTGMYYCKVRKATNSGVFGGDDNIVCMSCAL
Assay: Inhibition of Herpes Simplex Virus (HSV, type 1) ribonucleotide reductase
Assay type: biochemical
Settings: partially purified enzyme from BHK-21/C13 cells infected with strain F HSV-1; relative to control without peptide; mean of four assays; read-out: IC50 (concentration of the peptide producing 50% of the maximal inhibition of enzyme activity)
Description: Inhibition of Herpes Simplex Virus (HSV, type 1) Ribonucleotide Reductase
HSV-1 ribonucleotide reductase (partially purified) was obtained from quiescent BHK-21/C13 cells infected with strain F HSV-1 virus at 10 plaque forming units/cell as described by E. A. Cohen et al., J. Gen. Virol., 66, 733 (1985).
The procedure described by P. Gaudreau et al., J. Biol, Chem., 262, 12413 (1987) was employed. The assay result for each peptide is expressed as the concentration of the peptide producing 50% of the maximal inhibition (IC50) of enzyme activity. The number of units of the enzyme preparation used in each assay was constant, based on the specific activity of the enzyme preparation. The results are relative to the activity obtained in control experiments without peptide and represent the mean of four assays that varied less than 10% with each other.

With `CC[C@H](C)[C@@H]1NC(=O)[C@H](C(C)C)NC(=O)[C@H](Cc2ccc(O)cc2)NC(=O)C[C@@H](C(=O)N[C@@H](CC(=O)O)C(=O)N[C@@H](CC(C)C)C(=O)O)NC1=O` [example 1] (YVIDDL-OH; lactam N-4) as the molecule, how does the IC50 read?
The IC50 was 14.3 µM.

Which IC50 does the source give for `CC[C@H](C)[C@@H]1NC(=O)[C@H](C(C)C)N(C)C(=O)[C@H](Cc2ccc(O)cc2)NC(=O)C[C@@H](C(=O)N[C@@H](CC(=O)O)C(=O)N[C@@H](CC(C)C)C(=O)O)NC1=O` [example 2] (Y[NMeV]IDDL-OH; lactam N-4) here?
The IC50 was 140 µM.

With `CC[C@H](C)[C@@H]1NC(=O)[C@H](C(C)C)NC(=O)[C@H]([C@@H](C)O)NC(=O)CNC(=O)[C@H](C)NC(=O)[C@H](Cc2ccc(O)cc2)NC(=O)C[C@@H](C(=O)N[C@@H](CC(=O)O)C(=O)N[C@@H](CC(C)C)C(=O)O)NC1=O` [example 3] (YAGTVIDDL-OH; lactam N-7) as the molecule, how does the IC50 read?
Its IC50 is 16 µM.
